PubChem BioAssay AID248 (DTP/NCI, 2004)
Values joined by “and” are separate entries in the source; they are usually repeats but may differ in a detail not shown here. Equal values may be shown once. Toxic doses and inconclusive results are not listed. Rule as the data show it: active = T/C of 150% or more; inactive = T/C below 125%.

Tested on: L1210 leukemia ip in BDF1 mice, survival T/C
Test: NCI In Vivo Anticancer Drug Screen. Data for tumor model L1210 Leukemia (intraperitoneal) in B6D2F1 (BDF1) mice
Settings: endpoint: mean survival time, higher = longer survival
How it was run: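 Value reflects the ratio of survival in compound-treated mice to survival in vehicle-treated controls, with both groups carrying the same transplanted tumor.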

[1] = dose: 100.0 mg/kg/injection, schedule: Q01DX001 (ip), vehicle: carboxymethylcellulose (CMC)
[2] = dose: 200.0 mg/kg/injection, schedule: Q01DX001 (ip), vehicle: carboxymethylcellulose (CMC)
[3] = dose: 400.0 mg/kg/injection, schedule: Q01DX001 (ip), vehicle: carboxymethylcellulose (CMC)
[4] = dose: 100.0 mg/kg/injection, schedule: Q01DX001 (ip), vehicle: saline
[5] = dose: 200.0 mg/kg/injection, schedule: Q01DX001 (ip), vehicle: saline
[6] = dose: 100.0 mg/kg/injection, schedule: Q04DX003 (ip), vehicle: saline with Tween-80

Measured: T/C

CCOC(=O)c1c(C)c2c(n1C)CCC(C#N)C2=O (configuration not stated)
inactive: [1] 103 % of control | [2] 97 % of control | [3] 98 % of control

N#CC1(C(N)=O)OC12CCS(=O)(=O)c1ccccc12 (configuration not stated)
inactive: [4] 87 % of control | [5] 94 % of control

O=C(Nc1ccccc1NC(=O)C(Cl)(Cl)Cl)C(Cl)(Cl)Cl
inactive: dose: 87.5 mg/kg/injection, schedule: Q01DX009 (ip), vehicle: carboxymethylcellulose (CMC) 88 % of control | dose: 175.0 mg/kg/injection, schedule: Q01DX009 (ip), vehicle: carboxymethylcellulose (CMC) 93 % of control | dose: 350.0 mg/kg/injection, schedule: Q01DX009 (ip), vehicle: carboxymethylcellulose (CMC) 96 % of control

Cc1nc(Cl)cc(Cl)c1C
inactive: dose: 100.0 mg/kg/injection, schedule: Q04DX003 (ip), vehicle: other 106 % of control | dose: 178.0 mg/kg/injection, schedule: Q04DX003 (ip), vehicle: other 103 % of control | dose: 200.0 mg/kg/injection, schedule: Q04DX003 (ip), vehicle: other 104 % of control | dose: 266.0 mg/kg/injection, schedule: Q04DX003 (ip), vehicle: other 103 % of control | dose: 400.0 mg/kg/injection, schedule: Q04DX003 (ip), vehicle: other 89 % of control

CC(=O)OCC1OCC(OC(C)=O)C(OC(C)=O)C1OC(C)=O (configuration not stated)
inactive: [6] 94 % of control | dose: 200.0 mg/kg/injection, schedule: Q04DX003 (ip), vehicle: saline with Tween-80 98 % of control | dose: 400.0 mg/kg/injection, schedule: Q04DX003 (ip), vehicle: saline with Tween-80 98 % of control

[Cu+2].[NH-]C(CS)C(=O)O.[NH-]C(CS)C(=O)O (configuration not stated)
inactive: dose: 3.13 mg/kg/injection, schedule: Q04DX002 (ip), vehicle: saline with Tween-80 97 % of control | dose: 6.25 mg/kg/injection, schedule: Q04DX002 (ip), vehicle: saline with Tween-80 93 % of control and 90 % of control | dose: 25.0 mg/kg/injection, schedule: Q04DX002 (ip), vehicle: saline with Tween-80 90 % of control | dose: 125.0 mg/kg/injection, schedule: Q04DX002 (ip), vehicle: saline with Tween-80 93 % of control

COc1ccc(/C=c2\[nH]c(=O)/c(=C/c3ccc(OC)c(OC)c3)[nH]c2=O)cc1OC
inactive: dose: 25.0 mg/kg/injection, schedule: Q04DX003 (ip), vehicle: saline with Tween-80 92 % of control | dose: 50.0 mg/kg/injection, schedule: Q04DX003 (ip), vehicle: saline with Tween-80 89 % of control | [6] 86 % of control

CC1COCC(C)N1CC(=O)NCCCN1CCN(CCCNC(=O)CN2C(C)COCC2C)CC1 (configuration not stated)
inactive: dose: 44.0 mg/kg/injection, schedule: Q01DX001 (ip), vehicle: saline 98 % of control and 103 % of control | dose: 66.0 mg/kg/injection, schedule: Q01DX001 (ip), vehicle: saline 104 % of control and 108 % of control | [4] 104 % of control and 105 % of control | dose: 150.0 mg/kg/injection, schedule: Q01DX001 (ip), vehicle: saline 110 % of control and 116 % of control | [5] 113 % of control

CC(C(=O)O)(c1ccccc1)c1ccccc1
inactive: dose: 100.0 mg/kg/injection, schedule: Q04DX002 (ip), vehicle: gum acacia 101 % of control | dose: 200.0 mg/kg/injection, schedule: Q04DX002 (ip), vehicle: gum acacia 96 % of control | dose: 400.0 mg/kg/injection, schedule: Q04DX002 (ip), vehicle: gum acacia 96 % of control

O=[N+]([O-])c1ccc(CBr)cc1
inactive: dose: 12.5 mg/kg/injection, schedule: Q01DX009 (ip), vehicle: other 95 % of control | dose: 25.0 mg/kg/injection, schedule: Q01DX009 (ip), vehicle: other 113 % of control | dose: 50.0 mg/kg/injection, schedule: Q01DX009 (ip), vehicle: other 104 % of control

O=C(N=C1SCCS1)Nc1cccc(Cl)c1
inactive: dose: 100.0 mg/kg/injection, schedule: Q04DX002 (ip), vehicle: Klucel (hydroxypropylcellulose) (HPC) 100 % of control | dose: 200.0 mg/kg/injection, schedule: Q04DX002 (ip), vehicle: Klucel (hydroxypropylcellulose) (HPC) 95 % of control | dose: 400.0 mg/kg/injection, schedule: Q04DX002 (ip), vehicle: Klucel (hydroxypropylcellulose) (HPC) 110 % of control

CC(=O)Oc1ccc2c3c(ccc2c1)CCCC3
inactive: dose: 50.0 mg/kg/injection, schedule: Q01DX009 (ip), vehicle: Klucel (hydroxypropylcellulose) (HPC) 90 % of control | dose: 200.0 mg/kg/injection, schedule: Q01DX009 (ip), vehicle: Klucel (hydroxypropylcellulose) (HPC) 90 % of control

C/C=C\COC(=O)COc1ccc(Cl)cc1
inactive: dose: 100.0 mg/kg/injection, schedule: Q04DX003 (ip), vehicle: Klucel (hydroxypropylcellulose) (HPC) 94 % of control | dose: 200.0 mg/kg/injection, schedule: Q04DX003 (ip), vehicle: Klucel (hydroxypropylcellulose) (HPC) 96 % of control | dose: 400.0 mg/kg/injection, schedule: Q04DX003 (ip), vehicle: Klucel (hydroxypropylcellulose) (HPC) 107 % of control

Cc1ccc(S(=O)(=O)Nc2ccc(Br)cc2)cc1
inactive: [1] 105 % of control | [2] 105 % of control | [3] 107 % of control

CC(=O)Nc1nnc(NC(C)=O)s1
inactive: dose: 9.38 mg/kg/injection, schedule: Q01DX001 (ip), vehicle: other 102 % of control | dose: 18.75 mg/kg/injection, schedule: Q01DX001 (ip), vehicle: other 107 % of control

CC1(C)/C(=C\C(=O)O)C2C=CC1C2 (configuration not stated)
inactive: [4] 94 % of control | dose: 100.0 mg/kg/injection, schedule: Q01DX009 (ip), vehicle: acetone 86 % of control | dose: 100.0 mg/kg/injection, schedule: Q04DX003 (ip), vehicle: saline 114 % of control | [5] 101 % of control | dose: 200.0 mg/kg/injection, schedule: Q01DX009 (ip), vehicle: acetone 91 % of control | dose: 200.0 mg/kg/injection, schedule: Q04DX003 (ip), vehicle: saline 106 % of control | dose: 400.0 mg/kg/injection, schedule: Q01DX001 (ip), vehicle: saline 100 % of control | dose: 400.0 mg/kg/injection, schedule: Q04DX003 (ip), vehicle: saline 102 % of control

CCOc1ccc(-n2c(O)c(N=Nc3ccccc3)c(=O)n(-c3ccccc3)c2=S)cc1
inactive: dose: 50.0 mg/kg/injection, schedule: Q04DX003 (ip), vehicle: acetone 94 % of control | dose: 100.0 mg/kg/injection, schedule: Q04DX003 (ip), vehicle: acetone 89 % of control | dose: 200.0 mg/kg/injection, schedule: Q04DX003 (ip), vehicle: acetone 96 % of control

C=C(NC(=O)C(=C)NC(=O)c1csc(C2=NC3c4csc(n4)C4NC(=O)c5csc(n5)C(C(C)(O)C(C)O)NC(=O)C5CSC(=N5)/C(=C/C)NC(=O)C(C(C)O)NC(=O)c5csc(n5)C3(CC2)NC(=O)C(C)NC(=O)C(=C)NC(=O)C(=C)NC(=O)C(C(C)C)NC2C=Cc3c(C(C)O)cc(nc3C2O)C(=O)OC4C)n1)C(N)=O (configuration not stated)
inactive: dose: 3.12 mg/kg/injection, schedule: Q01DX009 (ip), vehicle: saline 101 % of control | dose: 6.25 mg/kg/injection, schedule: Q01DX009 (ip), vehicle: saline 117 % of control

Oc1ccc(/C=N/Nc2nnc(N/N=C/c3ccc(O)cc3O)c3ccccc23)c(O)c1
inactive: dose: 2.5 mg/kg/injection, schedule: Q01DX015 (ip), vehicle: carboxymethylcellulose (CMC) 97 % of control | dose: 5.0 mg/kg/injection, schedule: Q01DX009 (ip), vehicle: saline 104 % of control | dose: 5.0 mg/kg/injection, schedule: Q01DX015 (ip), vehicle: carboxymethylcellulose (CMC) 98 % of control | dose: 10.0 mg/kg/injection, schedule: Q01DX009 (ip), vehicle: saline 109 % of control | dose: 10.0 mg/kg/injection, schedule: Q01DX015 (ip), vehicle: carboxymethylcellulose (CMC) 110 % of control | dose: 19.0 mg/kg/injection, schedule: Q01DX015 (ip), vehicle: carboxymethylcellulose (CMC) 120 % of control | dose: 20.0 mg/kg/injection, schedule: Q01DX009 (ip), vehicle: saline 106 % of control | dose: 32.0 mg/kg/injection, schedule: Q01DX015 (ip), vehicle: carboxymethylcellulose (CMC) 114 % of control | dose: 50.0 mg/kg/injection, schedule: Q01DX001 (ip), vehicle: saline 98 % of control | [1] 111 % of control | [4] 97 % of control | [2] 121 % of control | [5] 106 % of control | dose: 600.0 mg/kg/injection, schedule: Q01DX001 (ip), vehicle: carboxymethylcellulose (CMC) 117 % of control

c1ccc2c(c1)CC1(Cc3ccccc3-2)C[N+]12CCCCC2
inactive: dose: 12.5 mg/kg/injection, schedule: Q04DX003 (ip), vehicle: saline 98 % of control | dose: 25.0 mg/kg/injection, schedule: Q04DX003 (ip), vehicle: saline 98 % of control | dose: 50.0 mg/kg/injection, schedule: Q04DX003 (ip), vehicle: saline 110 % of control
